From PubChem BioAssay (NCI)
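Tested at 5 concentrations; 48 h exposure; 96-well plates; endpoints linearly interpolated, else capped at highest concentration. TGI is the concentration that stops growth completely.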

Tests used:
Assay in all cases: NCI tumour cell line growth inhibition, 48 h
SF-539 CNS = test system: SF-539 CNS
A549 NSCLC = test system: A549 NSCLC
DMS 273 small cell lung = test system: DMS 273 small cell lung
SNB-78 CNS = test system: SNB-78 CNS
DMS 114 small cell lung = test system: DMS 114 small cell lung
OVCAR-8 ovarian = test system: OVCAR-8 ovarian
KM20L2 colon = test system: KM20L2 colon
HOP-18 NSCLC = test system: HOP-18 NSCLC
DLD-1 colon = test system: DLD-1 colon
XF 498 CNS = test system: XF 498 CNS
HL-60(TB) leukemia = test system: HL-60(TB) leukemia
LXFL 529 NSCLC = test system: LXFL 529 NSCLC
M19-MEL melanoma = test system: M19-MEL melanoma
SF-268 CNS = test system: SF-268 CNS
RXF-631 renal = test system: RXF-631 renal
OVCAR-5 ovarian = test system: OVCAR-5 ovarian

SMILES | TGI (SF-539 CNS) [µM] | TGI (A549 NSCLC) [µM] | TGI (DMS 273 small cell lung) [µM] | TGI (SNB-78 CNS) [µM] | TGI (DMS 114 small cell lung) [µM] | TGI (OVCAR-8 ovarian) [µM] | TGI (KM20L2 colon) [µM] | TGI (HOP-18 NSCLC) [µM] | TGI (DLD-1 colon) [µM] | TGI (XF 498 CNS) [µM] | TGI (HL-60(TB) leukemia) [µM] | TGI (LXFL 529 NSCLC) [µM] | TGI (M19-MEL melanoma) [µM] | TGI (SF-268 CNS) [µM] | TGI (RXF-631 renal) [µM] | TGI (OVCAR-5 ovarian) [µM]
CCOc1ccc2nc(NC(=O)c3c/c(=N\NC(=O)C[N+](C)(C)C)c4ccc(O)cc4o3)sc2c1 | 11 | 7.84 | 28.7 | 15.5 | 4.51 | 7.76 | 10 | 5.05 | 13.4 | 6.14 | 3.83 | 4.45 | 0.501 | 11.6 | 26.8 | 7.3
CCOC1(COP(=O)(OCc2ccccc2)OCc2ccccc2)COC(COP(=O)(OCc2ccccc2)OCc2ccccc2)(OCC)CO1 (configuration not stated) | > 100 | > 100 | > 100 | > 100 |  | > 100 | > 100 | > 100 | > 100 | > 100 | > 100 | > 100 | > 100 | > 100 | > 100 | > 100
CN(C)CCCNC(=O)N/N=C/c1cccc([N+](=O)[O-])c1 | > 100 | > 100 | > 100 | > 100 | > 100 | > 100 |  | > 100 | > 100 | > 100 |  | > 100 |  | > 100 |  | 
CCO[C@]12C[C@H](OC)[C@@]3(O)CC(C1[C@H]3OCc1ccccc1)C13C4C2[C@H](OC)C1[C@](COC)(CN4CC)[C@H](O)C[C@@H]3OC (some centres not stated) | > 100 | > 100 | > 100 | > 100 | > 100 | > 100 | > 100 |  | > 100 | > 100 | > 100 | > 100 | > 100 | > 100 |  | > 100
Cn1c(/C=C(\O)c2ccc(Cl)cc2)nc2ccccc21 | > 100 | 69.4 |  | > 100 |  | > 100 | 95.6 |  | > 100 | > 100 | 77.1 | > 100 | > 100 | > 100 | > 100 | 67.7
CC(=O)C1=CSC2[C@H](NC(=O)Cc3ccccc3)C(=O)N2C1C(=O)OC(c1ccccc1)c1ccccc1 (some centres not stated) | > 100 | > 100 | > 100 | > 100 | > 100 | > 100 |  |  | > 100 | > 100 | > 100 | > 100 | > 100 | > 100 | > 100 | 
Cc1cc2c(C)n(Cc3ccc(Cl)cc3Cl)nc2c(C#N)c1C | > 62.5 | > 100 | > 100 | > 76.4 | > 100 | > 100 | > 56.9 | > 91.6 | > 100 | 23 | > 100 | > 100 | > 100 | > 100 |  | > 56.2
CSCC1CC(c2ccc(Cl)cc2)=NO1 (configuration not stated) | > 100 | > 100 | > 100 | > 100 | > 100 | > 100 | > 100 | > 100 | > 100 |  | > 100 | > 100 | > 100 | > 100 | > 100 | > 100
CCOC(=O)C1=C(NC)OC/C1=N\NC(=O)c1ccccc1O | 60.6 | > 100 | > 100 | > 100 | 89.6 | > 100 | > 100 | > 100 | > 100 | > 100 | 71.4 | > 100 | > 100 | > 100 |  | > 100
